Assay results taken from PubChem BioAssay (NCI).
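Each compound was tested at five concentrations against cells in 96-well plates for 48 hours. At the GI50, growth is halved. The concentration for full growth arrest is given as TGI.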

Assays:
Assay in all cases: NCI tumour cell line growth inhibition, 48 h
[1] = tested on: CCRF-CEM leukemia
[2] = tested on: HL-60(TB) leukemia
[3] = tested on: LOX IMVI melanoma
[4] = tested on: MOLT-4 leukemia
[5] = tested on: NCI-H460 lung
[6] = tested on: SF-539 CNS
[7] = tested on: SR leukemia
[8] = tested on: BT-549 breast
[9] = tested on: MDA-MB-435
[10] = tested on: PC-3 prostate

CC1=Nc2ccccc2C1C(Cc1ccccc1N)c1c(C)[nH]c2ccccc12 (stereo not given) was tested. Which TGI [1] did it give?
Its TGI is 47.2 µM.

What about the TGI [2] of the same molecule?
Its TGI is 35.7 µM.

What about the TGI [3] of the same molecule?
Its TGI is 28.2 µM.

And the TGI [4]?
Its TGI is 53.4 µM.

What about the TGI [5] of the same molecule?
Its TGI is 35.2 µM.

And the TGI [6]?
The TGI was 31.5 µM.

What about the TGI [7] of the same molecule?
The TGI was 50.3 µM.

What does the source list for COc1ccc(OC)c(NC(=O)C(=O)NNC(=O)c2sc(NNC(C)=O)nc2C)c1?
TGI [1]: 45.2 µM; TGI [2]: 90.3 µM; TGI [3]: 83.3 µM; TGI [4]: 47.1 µM; TGI [5]: > 100 µM; TGI [6]: 82.3 µM; TGI [7]: > 100 µM

C=C(CCCCC)CN1CCCC1[C@@](C)(O)CC(=O)OCC (stereo not given in full) was tested. Which TGI [1] did it give?
The TGI was greater than 100 µM.

What about the TGI [2] of the same molecule?
Its TGI is greater than 100 µM.

What about the TGI [3] of the same molecule?
The TGI was greater than 100 µM.

And the TGI [4]?
The TGI was greater than 100 µM.

And the TGI [5]?
Its TGI is greater than 100 µM.

What about the TGI [6] of the same molecule?
Its TGI is greater than 100 µM.

What about the TGI [7] of the same molecule?
Its TGI is greater than 100 µM.

What does the source list for CCCCN(CCCC)CC(C(=O)Nc1ccc([N+](=O)[O-])cc1[N+](=O)[O-])/C(C)=N\NC(=S)NN (stereo not given)?
TGI [1]: > 100 µM; TGI [2]: > 100 µM; TGI [3]: > 100 µM; TGI [4]: > 100 µM; TGI [5]: > 100 µM; TGI [6]: > 100 µM

What does the source list for COC(=O)C1=C(C)N(NC(=O)c2ccccc2)C(C)(O)C12CCOC2=O (stereo not given)?
TGI [1]: > 100 µM; TGI [2]: > 100 µM; TGI [3]: > 100 µM; TGI [4]: > 100 µM; TGI [5]: > 100 µM; TGI [6]: > 100 µM

With C=C(C)[C@@]12OC3(/C=C/C=C/CCCCC)O[C@@H]1[C@@H]1[C@@H]4O[C@]4(CO)[C@@H](O)[C@]4(O)C(=O)C(C)=C[C@H]4[C@@]1(O3)[C@H](C)[C@H]2OC(=O)c1ccccc1 as the molecule, how does the GI50 [8] read?
The GI50 was 1.66 µM.

And the TGI [8]?
Its TGI is 4.38 µM.

What about the GI50 [1] of the same molecule?
Its GI50 is less than 0.01 µM.

What about the TGI [1] of the same molecule?
The TGI was 2.66 µM.

What about the GI50 [3] of the same molecule?
The GI50 was 1.1 µM.

What about the TGI [3] of the same molecule?
Its TGI is 2.29 µM.

And the GI50 [9]?
The GI50 was less than 0.01 µM.

And the TGI [9]?
Its TGI is 4.56 µM.

And the GI50 [5]?
Its GI50 is less than 0.01 µM.

And the TGI [5]?
The TGI was 2.29 µM.

What about the GI50 [10] of the same molecule?
Its GI50 is 1.46 µM.

What about the TGI [10] of the same molecule?
Its TGI is 3.3 µM.

And the GI50 [6]?
Its GI50 is 1.41 µM.

And the TGI [6]?
The TGI was 2.8 µM.

What does the source list for O=C(c1ccccc1)c1cc(Cl)ccc1OCCCCN1CCN(CCCCOc2ccc(Cl)cc2C(=O)c2ccccc2)CC1?
GI50 [2]: 2.3 µM; TGI [2]: 4.9 µM; GI50 [3]: 1.73 µM; TGI [3]: 3.21 µM; GI50 [9]: 3.65 µM; TGI [9]: 11.9 µM; GI50 [4]: 3.3 µM; TGI [4]: 7.5 µM; GI50 [5]: 2.17 µM; TGI [5]: 4.87 µM; GI50 [10]: 3.59 µM; TGI [10]: 13.5 µM; GI50 [6]: 4.8 µM; TGI [6]: 15.6 µM; GI50 [7]: 1.83 µM; TGI [7]: 4.89 µM

O=C(O)CNc1cc(-c2ccccc2)nc(NCC(=O)O)n1 was tested. Which TGI [1] did it give?
Its TGI is greater than 100 µM.

And the TGI [2]?
Its TGI is greater than 100 µM.

And the TGI [3]?
Its TGI is greater than 100 µM.

What about the TGI [4] of the same molecule?
Its TGI is greater than 100 µM.

What about the TGI [5] of the same molecule?
The TGI was greater than 100 µM.

What about the TGI [6] of the same molecule?
Its TGI is greater than 100 µM.

What about the TGI [7] of the same molecule?
Its TGI is greater than 100 µM.
